Measured values published in publication PMC10537604, “Development and Assessment of 1,5–Diarylpyrazole/Oxime Hybrids Targeting EGFR and JNK–2 as Antiproliferative Agents: A Comprehensive Study through Synthesis, Molecular Docking, and Evaluation” (Molecules, 2023).

What was measured:
[1] = test system: human colorectal adenocarcinoma cell line DLD-1; test: WST-8 antiproliferative assay, DLD-1; type: cell-based; conditions: DLD-1, 100 µM, WST-8 assay, read-out: Growth Inhibition (GI%) DLD-1
[2] = test system: human cervical cancer cell line Hela; test: WST-8 antiproliferative assay, Hela; type: cell-based; conditions: WST-8 assay
[3] = test system: human pancreatic cancer cell line SUIT-2; test: WST-8 antiproliferative assay, SUIT-2; type: cell-based; conditions: SUIT-2, 100 µM, WST-8 assay, read-out: Growth Inhibition (GI%) SUIT-2
[4] = test system: human hepatocellular carcinoma cell line HepG2; test: WST-8 antiproliferative assay, HepG2; type: cell-based; conditions: HepG2, 100 µM, WST-8 assay, read-out: Growth Inhibition (GI%) HepG2
[5] = molecular target: T1, JNK-2 (Homo sapiens, UniProt P45984); test: JNK-2 inhibitory assay (SimpleStep ELISA, pT183/Y185); type: biochemical; conditions: read-out: IC50 (µM) against JNK-2
T1 construct: HEK293 only for the control lysate
Protocol: The SimpleStep ELISA employs an affinity tag-labelled capture antibody and a reporter attached detector antibody to immunocapture the sample analyte in solution. This complete complex (capture antibody/analyte/detector antibody) is then immobilized via immunoaffinity of an anti-tag antibody coating the well. To perform the assay, samples or controls are added to the wells, followed by the antibody cocktail. After incubation, the wells are washed to remove unbound material. TMB substrate is added and during incubation is catalyzed by HRP, generating blue coloration. This reaction is then stopped by the addition of stop solution, completing any color change from blue to yellow. The signal is generated proportionally to the amount of bound analyte and the intensity is measured at 450 nm. Optionally, instead of the endpoint reading, the development of TMB can be recorded kinetically at 600 nm. An antibody cocktail can be prepared by combining an appropriate volume of the capture and detector antibodies immediately prior to assay. To make 3 mL of the antibody cocktail, combine 1.5 mL of capture antibody with 1.5 mL of detector antibody. Mix thoroughly and gently. Control lysate can be prepared from HEK293 cells, cultured in 10% FBS containing medium, then treated with 1 μg/mL anisomycin. After preparing all the reagents, samples, and control as instructed and following the previously published procedures [74, 75], add 50 µL of sample or control to the well, add 50 µL of the antibody cocktail, then incubate at room temperature for 1 h on a plate shaker set to 400 rpm, aspirate and wash each well three times with 350 μL with wash buffer, add 100 μL TMB substrate to each well and incubate for 15 min, then add 100 μL stop solution and measure the absorbance at 450 nm.

[6] = test system: Hela cell line; test: Cell cycle analysis, PI staining, flow cytometry; type: cell-based, human
Protocol: This analysis was applied to investigate the effects of tested compounds on cell cycle distribution and on cell-death associated DNA fragmentation. The Hela cell line was analyzed flow cytometrically after propidium iodide (PI) staining, following the treatment of compounds 8g and 8i.
The supernatant was transferred to falcon tube for each plate and each well was washed twice with 3 mL PBS, Trypsin 1 mL was added, and plates were incubated for 3 to 5 min at 37 degrees, then 3 mL of the medium was added to separate cells, cells were centrifuged for 5 min, and supernatant was decanted. Then, it was washed again with 3 mL PBS, and 10 mL of medium was added. Cells were immediately fixed in ice cold 70% ethanol overnight at −20 °C. On the day of the analysis, cells were washed ×3 with PBS and re-suspended in propidium iodide (PI) for 15 min at room temperature, protected from light. Cell-cycle analysis was performed using flowcytometric analysis (BD FACS melody) and data obtained from cell cycle distribution was analyzed using FSC-W (Watson model) to estimate the percentage of cells in G1, S, and G2.

[7] = test system: human colorectal adenocarcinoma cell line DLD-1; test: WST-8 antiproliferative assay, DLD-1; type: cell-based; conditions: WST-8 assay, six concentrations 1-100 µM
[8] = test system: human pancreatic cancer cell line SUIT-2; test: WST-8 antiproliferative assay, SUIT-2; type: cell-based; conditions: WST-8 assay, six concentrations 1-100 µM
[9] = test system: human hepatocellular carcinoma cell line HepG2; test: WST-8 antiproliferative assay, HepG2; type: cell-based; conditions: WST-8 assay, six concentrations 1-100 µM

T1 sequence (P45984 whole entry): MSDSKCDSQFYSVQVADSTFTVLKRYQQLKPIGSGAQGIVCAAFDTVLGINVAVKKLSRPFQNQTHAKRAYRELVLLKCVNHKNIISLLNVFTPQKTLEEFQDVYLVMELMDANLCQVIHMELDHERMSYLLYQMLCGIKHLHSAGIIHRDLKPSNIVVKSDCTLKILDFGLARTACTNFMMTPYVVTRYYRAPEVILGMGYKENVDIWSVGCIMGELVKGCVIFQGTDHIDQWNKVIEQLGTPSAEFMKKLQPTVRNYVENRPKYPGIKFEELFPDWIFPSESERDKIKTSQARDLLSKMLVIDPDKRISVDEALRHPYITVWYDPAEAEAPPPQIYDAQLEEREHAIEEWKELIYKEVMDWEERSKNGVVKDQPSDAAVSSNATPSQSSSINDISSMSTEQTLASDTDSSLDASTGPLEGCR

## COc1cc(/C(C)=N/O)ccc1OC(=O)c1cc(-c2ccc(C)cc2)n(-c2ccc(S(N)(=O)=O)cc2)n1 [Compound 8g, (E)–4–(1–(Hydroxyimino)ethyl)–2–methoxyphenyl 1–(4–sulfamoylphenyl)–5–p–tolyl–1H–pyrazole–3–carboxylate]
[1]
  inhibition at 100 µM: 85.8%
[2]; 100 µM, read-out: Growth Inhibition (GI%) Hela
  inhibition at 100 µM: 78%
[2]; six concentrations 1-100 µM, read-out: IC50 Hela
  IC50: 8 µM
[3]
  inhibition at 100 µM: 96%
[4]
  inhibition at 100 µM: 93%
[5]
  IC50: > 200 µM
[6]; 48 h
  percentage of Hela cells at G2 phase: 20.5%
[6]; Hela, PI staining
  cell cycle arrest phase: G2/M arrest
[7]
  IC50: 32.3 µM
[8]
  IC50: 19 µM
[9]
  IC50: 12.3 µM
